Results as given in PubChem BioAssay (NCI).
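In this assay, cells in 96-well plates receive the compound at five concentrations for 48 hours. Endpoints are linearly interpolated between the surrounding concentrations. GI50 = concentration required for 50% inhibition of growth. TGI is the concentration that stops growth completely.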

How the values were obtained:
Assay in all cases: NCI anticancer screen, dose series, 48 h; in the data active = GI50 below about 0.43 µM; inactive = the rest
A549 NSCLC = system: A549 NSCLC
K-562 leukemia = system: K-562 leukemia
OVCAR-4 ovarian = system: OVCAR-4 ovarian
A498 renal = system: A498 renal
SF-295 CNS = system: SF-295 CNS
OVCAR-8 ovarian = system: OVCAR-8 ovarian
NCI-H23 lung = system: NCI-H23 lung
HCT-15 colon = system: HCT-15 colon
HS 578T breast = system: HS 578T breast
DU-145 prostate = system: DU-145 prostate

CS/C(N)=N\NC(=O)CCC(=O)Nc1ccccc1C(F)(F)F
> 100 µM: TGI (A549 NSCLC) | TGI (K-562 leukemia) | TGI (OVCAR-4 ovarian) | TGI (A498 renal) | TGI (SF-295 CNS) | TGI (OVCAR-8 ovarian) | TGI (NCI-H23 lung) | TGI (HCT-15 colon)

O=C1OC(c2ccccc2)=N/C1=C\c1cccc2ccccc12
> 100 µM: TGI (A549 NSCLC) | TGI (K-562 leukemia) | TGI (OVCAR-4 ovarian) | TGI (A498 renal) | TGI (SF-295 CNS) | TGI (OVCAR-8 ovarian) | TGI (NCI-H23 lung) | TGI (HCT-15 colon)

CCOc1ccccc1NC(=O)CC(C(=O)OC)C(=O)C(=O)OC (centres undefined)
> 100 µM: TGI (A549 NSCLC) | TGI (K-562 leukemia) | TGI (OVCAR-4 ovarian) | TGI (A498 renal) | TGI (SF-295 CNS) | TGI (OVCAR-8 ovarian) | TGI (NCI-H23 lung) | TGI (HCT-15 colon)

CC(C)C(Nc1c2ccccc2nc2ccccc12)C(=O)O (centres undefined)
85.3 µM: TGI (OVCAR-4 ovarian)
> 100 µM: TGI (A549 NSCLC) | TGI (K-562 leukemia) | TGI (SF-295 CNS) | TGI (OVCAR-8 ovarian) | TGI (NCI-H23 lung) | TGI (HCT-15 colon)

COC(=O)C1=C(C)N(NC(=O)OC(C)(C)C)C(=O)C1=P(c1ccccc1)(c1ccccc1)c1ccccc1
> 100 µM: TGI (A549 NSCLC) | TGI (K-562 leukemia) | TGI (OVCAR-4 ovarian) | TGI (A498 renal) | TGI (SF-295 CNS) | TGI (OVCAR-8 ovarian) | TGI (NCI-H23 lung) | TGI (HCT-15 colon)

COc1cc(C=C2C(=O)NC(=O)NC2=O)cc(OC)c1OC
> 100 µM: TGI (A549 NSCLC) | TGI (K-562 leukemia) | TGI (OVCAR-4 ovarian) | TGI (SF-295 CNS) | TGI (OVCAR-8 ovarian) | TGI (NCI-H23 lung) | TGI (HCT-15 colon)

c1ccc(CNn2nnc3ccccc32)cc1
> 100 µM: TGI (A549 NSCLC) | TGI (K-562 leukemia) | TGI (OVCAR-4 ovarian) | TGI (SF-295 CNS) | TGI (OVCAR-8 ovarian) | TGI (NCI-H23 lung) | TGI (HCT-15 colon)

Nn1c(=O)n(Cc2ccccc2)n(-c2ccccc2)c1=O
> 100 µM: TGI (A549 NSCLC) | TGI (K-562 leukemia) | TGI (OVCAR-4 ovarian) | TGI (A498 renal) | TGI (SF-295 CNS) | TGI (OVCAR-8 ovarian) | TGI (NCI-H23 lung)

O=C(Cc1ccccc1)NN1C(=O)C(Cl)C1c1cc(Br)ccc1O (centres undefined)
53.3 µM: TGI (NCI-H23 lung)
> 100 µM: TGI (A549 NSCLC) | TGI (OVCAR-4 ovarian) | TGI (HCT-15 colon)
69.2 µM: TGI (OVCAR-8 ovarian)
42.7 µM: TGI (K-562 leukemia)
94.3 µM: TGI (SF-295 CNS)

Cc1cn(C2CC(O)C(CO)O2)c(=O)n2nnnc12 (centres undefined)
> 100 µM: TGI (A549 NSCLC) | TGI (K-562 leukemia) | TGI (OVCAR-4 ovarian) | TGI (A498 renal) | TGI (SF-295 CNS) | TGI (OVCAR-8 ovarian) | TGI (NCI-H23 lung) | TGI (HCT-15 colon)

COc1cc2c(cc1OC)C(CC(=O)NN=C(C)C)NCC2 (centres undefined)
> 100 µM: TGI (A549 NSCLC) | TGI (K-562 leukemia) | TGI (OVCAR-4 ovarian) | TGI (A498 renal) | TGI (SF-295 CNS) | TGI (OVCAR-8 ovarian) | TGI (NCI-H23 lung) | TGI (HCT-15 colon)

COc1cc2c3c(n(CCCNC(=O)OCC4c5ccccc5-c5ccccc54)c(=O)c2cc1OC)-c1cc2c(cc1/C3=C\CCNC(=O)OCC1c3ccccc3-c3ccccc31)OCO2
> 50 µM: TGI (A549 NSCLC) | TGI (OVCAR-4 ovarian) | TGI (SF-295 CNS) | TGI (OVCAR-8 ovarian) | TGI (HCT-15 colon) | TGI (DU-145 prostate)
10.2 µM: TGI (HS 578T breast)
> 35.8 µM: TGI (K-562 leukemia)
inactive: GI50 (A549 NSCLC) > 26.6 µM | GI50 (K-562 leukemia) 9.17 µM | GI50 (HS 578T breast) 1.29 µM | GI50 (OVCAR-4 ovarian) > 50 µM | GI50 (SF-295 CNS) > 23.6 µM | GI50 (OVCAR-8 ovarian) > 35.3 µM | GI50 (NCI-H23 lung) 0.921 µM | GI50 (HCT-15 colon) > 50 µM | GI50 (DU-145 prostate) > 42.2 µM
9.54 µM: TGI (NCI-H23 lung)

CCOC(=O)C1=C(C)N(NC(=O)Nc2ccccc2)C(=O)C1=P(c1ccccc1)(c1ccccc1)c1ccccc1
> 100 µM: TGI (A549 NSCLC) | TGI (K-562 leukemia) | TGI (OVCAR-4 ovarian) | TGI (A498 renal) | TGI (SF-295 CNS) | TGI (OVCAR-8 ovarian) | TGI (NCI-H23 lung) | TGI (HCT-15 colon)

C[C@@H]1CC(=O)C2CCCC1C2=O (some centres undefined)
> 100 µM: TGI (A549 NSCLC) | TGI (OVCAR-4 ovarian) | TGI (A498 renal) | TGI (SF-295 CNS) | TGI (OVCAR-8 ovarian) | TGI (HCT-15 colon)

COC(C(O)CO)C(O)C(O)C(=O)NNc1ccccc1 (centres undefined)
> 100 µM: TGI (A549 NSCLC) | TGI (K-562 leukemia) | TGI (HS 578T breast) | TGI (A498 renal) | TGI (SF-295 CNS) | TGI (OVCAR-8 ovarian) | TGI (NCI-H23 lung) | TGI (HCT-15 colon) | TGI (DU-145 prostate)

CCOC(=O)CC1(C(=O)OCC)c2[nH]c3ccccc3c2CCN1Cc1ccccc1 (centres undefined)
> 100 µM: TGI (K-562 leukemia) | TGI (HCT-15 colon)
55.2 µM: TGI (OVCAR-4 ovarian)
78.7 µM: TGI (OVCAR-8 ovarian)
32.8 µM: TGI (SF-295 CNS)
35.9 µM: TGI (A498 renal)
33 µM: TGI (NCI-H23 lung)
40.3 µM: TGI (A549 NSCLC)

Clc1ccc(C2=Nn3c(COc4ccccc4Cl)nnc3SC2)c(Cl)c1
69 µM: TGI (HS 578T breast)
inactive: GI50 (A549 NSCLC) 23.6 µM | GI50 (HS 578T breast) 15 µM | GI50 (OVCAR-4 ovarian) 26.9 µM | GI50 (SF-295 CNS) 10.3 µM | GI50 (OVCAR-8 ovarian) 29.6 µM | GI50 (NCI-H23 lung) 15.5 µM | GI50 (HCT-15 colon) 54.6 µM | GI50 (DU-145 prostate) 19.8 µM
87 µM: TGI (SF-295 CNS)
39.6 µM: TGI (NCI-H23 lung)
86.1 µM: TGI (DU-145 prostate)
> 100 µM: TGI (A549 NSCLC) | TGI (OVCAR-4 ovarian) | TGI (OVCAR-8 ovarian) | TGI (HCT-15 colon)

COc1ccc(/C=C/c2ccnc3ccccc23)c(OC)c1
> 10 µM: TGI (A549 NSCLC) | TGI (K-562 leukemia) | TGI (HS 578T breast) | TGI (OVCAR-4 ovarian) | TGI (A498 renal) | TGI (SF-295 CNS) | TGI (OVCAR-8 ovarian) | TGI (HCT-15 colon) | TGI (DU-145 prostate)

COc1ccc(C(=O)C(C(=O)CCC(=O)Nc2cccc(Cl)c2)c2ccc(OC)cc2)cc1 (centres undefined)
> 100 µM: TGI (A549 NSCLC) | TGI (K-562 leukemia) | TGI (OVCAR-4 ovarian) | TGI (A498 renal) | TGI (SF-295 CNS) | TGI (OVCAR-8 ovarian) | TGI (NCI-H23 lung) | TGI (HCT-15 colon)

COc1ccccc1CCc1cc(OC)c(OC)c(OC)c1
> 100 µM: TGI (A549 NSCLC) | TGI (K-562 leukemia) | TGI (OVCAR-4 ovarian) | TGI (A498 renal) | TGI (SF-295 CNS) | TGI (OVCAR-8 ovarian) | TGI (HCT-15 colon)

CC(C)(C)c1ccc2c(c1)S(=O)(=O)Nc1ccccc1NS(=O)(=O)c1cc(C(C)(C)C)ccc1OCCOCCOCCO2
48 µM: TGI (OVCAR-4 ovarian)
> 100 µM: TGI (A549 NSCLC) | TGI (K-562 leukemia) | TGI (A498 renal) | TGI (SF-295 CNS) | TGI (OVCAR-8 ovarian) | TGI (NCI-H23 lung) | TGI (HCT-15 colon)

C1=CC2SSSC2C1 (centres undefined)
> 100 µM: TGI (A549 NSCLC) | TGI (K-562 leukemia) | TGI (OVCAR-4 ovarian) | TGI (SF-295 CNS) | TGI (OVCAR-8 ovarian) | TGI (NCI-H23 lung) | TGI (HCT-15 colon)

Cc1cc(Cl)ccc1N=C1NC(=O)C(CC(=O)Nc2ccc([N+](=O)[O-])cc2[N+](=O)[O-])S1 (centres undefined)
85.9 µM: TGI (A549 NSCLC)
56.3 µM: TGI (OVCAR-4 ovarian)
59.5 µM: TGI (SF-295 CNS)
51.8 µM: TGI (NCI-H23 lung)
> 100 µM: TGI (K-562 leukemia) | TGI (OVCAR-8 ovarian) | TGI (HCT-15 colon)
51.5 µM: TGI (A498 renal)

OC[C@H]1CCCC1O (some centres undefined)
> 100 µM: TGI (A549 NSCLC) | TGI (K-562 leukemia) | TGI (OVCAR-4 ovarian) | TGI (A498 renal) | TGI (SF-295 CNS) | TGI (OVCAR-8 ovarian) | TGI (NCI-H23 lung) | TGI (HCT-15 colon) | TGI (DU-145 prostate)
